The source of these data is patent publication US10231956B2, “3-(1H-pyrrolo[3,2-C]pyridin-2-YL)-1 H-pyrazolo[4,3-B]pyridines and therapeutic uses thereof” (Samumed, LLC, priority 2015, dated 2019).

Common to all, as to format: cell-based
One assay relates to IL-6. The assay can be described thus: IL-6 inhibition in LPS-stimulated THP-1 cells (HTRF). The conditions noted are these: Homo sapiens, LPS 500 ng/mL, 22 hours, IL6 HTRF. The method, then: Human Monocyte Cell Culture: Human monocyte cell line (THP-1 cells; Catalog # TIB-202, ATCC, Manassas, Va.) were cultured in Roswell Park Memorial Institute (RPMI) 1640 Medium (Catalog #21870-100, Buffalo, N.Y.) with 1% L-glutamine, 1% HEPES, 1% Sodium Pyruvate, 2% Sodium Bicarbonate supplemented with 100 units/mL penicillin, 50 μg/mL streptomycin, 2-mercaptoethanol (0.05 mM) [basal medium] and 10% fetal bovine serum (Catalog #16140089, Life Technologies, Carlsbad, Calif.) at 37° C. and 5% CO2.
Compound Screening: THP-1 cells were cultured in basal media with 1% FBS for 24 hours before the start of the assay. Each compound was dissolved in DMSO as a 10 mM stock and used to prepare compound source plates. Serial dilution (1:3, 10-point dose-response curves starting from 1 μM) and compound transfer was performed using the ECHO 550 (Labcyte, Sunnyvale, Calif.) into 384-well white low volume assay plates (Greiner Bio-One) with appropriate DMSO backfill for a final DMSO concentration of 0.1%. THP-1 cells were plated at 5000 cells/well in the 384-well plates and incubated at 37° C. for 2 h. 500 ng/mL of LPS was added after 2 hours and cells were incubated for another 22 hours at 37° C. Plates were spun in a centrifuge for 1 minute at 10,000 rpm and a mixture of anti-IL6 XL665, and anti-IL6 Cryptate diluted in reconstitution buffer (Cisbio Inc.) was added to each well. Following incubation for 3 hrs at room temperature, Homogeneous Time-Resolved Fluorescence (HTRF) was measured using the Envision (Perkin Elmer) at 665 nm and […]. The ratio of fluorescence at 665 nm to 620 nm was used as a readout for IL6 quantification. All samples were processed in duplicate. Readings were normalized to DMSO treated cells and normalized activities were utilized for EC50 calculations using the dose-response log (inhibitor) vs. response-variable slope (four parameters) nonlinear regression feature available in GraphPad Prism 5.0 (or Dotmatics). For EC50 of >10 μM, the percent inhibition at 10 μM is provided.

Assay [1] has as its system primary human fibroblasts derived from IPF patients (LL29 cells). The experiment in a line: Inhibition of fibrotic process: αSMA staining in TGF-β1 treated LL29 fibroblasts. Conditions: Fibroblast, 96 h, TGF-β1 20 ng/mL, 4 days, % cells positive for αSMA. The text has this: Representative compounds were screened using primary human fibroblasts (derived from IPF patients) treated with TGF-β1 to determine their ability to inhibit the fibrotic process.
Human Fibroblast Cell Culture: Primary human fibroblasts derived from IPF patients (LL29 cells) [^1Xiaoqiu Liu, et. al., “Fibrotic Lung Fibroblasts Show Blunted Inhibition by cAMP Due to Deficient cAMP Response Element-Binding Protein Phosphorylation”, Journal of Pharmacology and Experimental Therapeutics (2005), 315(2), 678-687; ^2Watts, K. L., et. al., “RhoA signaling modulates cyclin D1 expression in human lung fibroblasts; implications for idiopathic pulmonary fibrosis”, Respiratory Research (2006), 7(1), 88] were obtained from American Type Culture Collection (ATCC) and expanded in F12 medium supplemented with 15% Fetal Bovine Serum and Penicillin/Streptomycin.
Compound Screening: Each compound was dissolved in DMSO as a 10 mM stock and used to prepare compound source plates. Serial dilution (1:2, 11-point dose-response curves from […]) and compound transfer was performed using the ECHO 550 (Labcyte, Sunnyvale, Calif.) into 384-well clear bottom assay plates (Greiner Bio-One) with appropriate DMSO backfill for a final DMSO concentration of 0.1%. LL29 cells are plated at 1,500 cells/well in 80 μL/well F12 medium supplemented with 1% Fetal Bovine Serum. One hour after addition of the cells, TGF-β1 (Peprotech; 20 ng/mL) was added to the plates to induce fibrosis (ref. 1 and 2 above). Wells treated with TGF-β1 and containing DMSO were used as controls. Cells were incubated at 37° C. and 5% CO2 for 4 days. Following incubation for 4 days, SYTOX green nucleic acid stain (Life Technologies [Thermo Fisher Scientific]) was added to the wells at a final concentration of 1 μM and incubated at room temperature for 30 min. Cells were then fixed using 4% formaldehyde (Electron Microscopy Sciences), washed 3 times with PBS followed by blocking and permeabilization using 3% Bovine Serum Albumin (BSA; Sigma) and 0.3% Triton X-100 (Sigma) in PBS. Cells were then stained with antibody specific to α-smooth muscle actin (αSMA; Abcam) (ref. 1 and 2 above) in 3% Bovine Serum Albumin (BSA; Sigma) and 0.3% Triton X-100 (Sigma) in PBS, and incubated overnight at 4° C. Cells were then washed 3 times with PBS, followed by incubation with Alexa Flor-647 conjugated secondary antibody (Life Technologies [Thermo Fisher Scientific]) and DAPI at room temperature for 1 hour. Cells were then washed 3 times with PBS and plates were sealed for imaging. αSMA staining was imaged by excitation at 630 nm and emission at 665 nm and quantified using the Compartmental Analysis program on the CellInsight CX5 (Thermo Scientific). Dead or apoptotic cells were excluded from analysis based on positive SYTOX green staining. % of total cells positive for αSMA were counted in each well and normalized to the average of 11 wells treated with TGF-β1 on the same plate using Dotmatics' Studies Software. The normalized averages (fold change over untreated) of 3 replicate wells for each compound concentration were used to create dose-responses curves and EC50 values were calculated using non-linear regression curve fit in the Dotmatics' Studies Software. For EC50 of >10 μM, the percent inhibition at 10 μM is provided.

In assay [2] the test system is Wnt activity (Sp5-Luc reporter, SW480 colon carcinoma cells). The assay can be described thus: Sp5-Luc reporter gene screening assay for Wnt activity in SW480 cells. Conditions: Homo sapiens, luminescence, overnight incubation. The text has this:
The screening assay for Wnt activity is described as follows. Reporter cell lines can be generated by stably transducing cancer cell lines (e.g., colon cancer) or primary cells (e.g., IEC-6 intestinal cells) with a lentiviral construct that includes a Wnt-responsive promoter driving expression of the firefly luciferase gene.
SW480 colon carcinoma cells were transduced with a lentiviral vector expressing luciferase with a human Sp5 promoter consisting of a sequence of eight TCF/LEF binding sites. SW480 cells stably expressing the Sp5-Luc reporter gene and a hygromycin resistance gene were selected by treatment with 150 μg/mL of hygromycin for 7 days. These stably transduced SW480 cells were expanded in cell culture and used for all further screening activities. Each compound was dissolved in DMSO as a 10 mM stock and used to prepare compound source plates. Serial dilution (1:3, 10-point dose-response curves starting from 10 μM) and compound transfer was performed using the ECHO 550 (Labcyte, Sunnyvale, Calif.) into 384-well white solid bottom assay plates (Greiner Bio-One) with appropriate DMSO backfill for a final DMSO concentration of 0.1%. For Sp5-Luc reporter gene assays, the cells were plated at 4,000 cells/well in 384-well plates with medium containing 1% fetal bovine serum and incubated overnight at 37° C. and 5% CO2. Following incubation, 20 μl of BrightGlo luminescence reagent (Promega) was added to each well of the 384-well assay plates. The plates were placed on an orbital shaker for 2 min and then luminescence was quantified using the Envision (Perkin Elmer) plate reader. Readings were normalized to DMSO only treated cells, and normalized activities were utilized for EC50 calculations using the dose-response log (inhibitor) vs. response-variable slope (four parameters) nonlinear regression feature available in GraphPad Prism 5.0 (or Dotmatics). For EC50 of >10 μM, the percent inhibition at 10 μM is provided.
On the technique in general: In a reporter assay the amount or activity of a reporter protein is the signal.

Another assay concerns SW480 colon cancer cells. The assay can be described thus: Cell viability assay (CellTiter-Blue) in SW480 colon cancer cells. The conditions noted are these: Homo sapiens, 96 h, four days, CellTiter-Blue. How it is done: Representative compounds were screened using the following assay procedure to assess the effect on cell viability as described below.
Each compound was dissolved in DMSO as a 10 mM stock and used to prepare compound source plates. Serial dilution (1:3, 8-point dose-response curves from 10 μM to 0.0045 μM) and compound transfer was performed using the ECHO 550 (Labcyte, Sunnyvale, Calif.) into 96-well clear bottom, black-walled plates (Corning-Costar).
Approximately 2×10^3 SW480 colon cancer cells were seeded into each well and allowed to incubate in the presence or absence of compound for four days at 37° C./5% CO2. Eight replicates of DMSO-treated cells served as controls and cells treated with compound were performed in duplicate.
After incubation, 20 μL of CellTiter-Blue (Promega) was added to each well allowed to incubate for approximately 3 hours. This reagent was a buffered solution which contains resazurin, metabolically active cells were able to reduce rezarurin (blue) into resorufin (pink) which was highly fluorescent. This measured fluorescence was used as a readout for cell viability.
After incubation, the plates were read at Ex 560 nm Em 590 nm (Cytation 3, BioTek). Dose-response curves were generated and EC50 concentration values were calculated using non-linear regression curve fit in the GraphPad Prism (San Diego, Calif.) or Dotmatics' Studies Software (Bishops Stortford, UK). For EC50 of >10 μM, the percent inhibition at 10 μM is provided.
For orientation: Resazurin is reduced to fluorescent resorufin, in cell work by metabolically active cells.

Molecules are shown by their SMILES. pEC50: −log10 of the molar value.

The pEC50 is the EC50 on a negative log10 scale, so that one unit is a factor of ten. For the molecule `Cc1ccncc1-c1ccc2[nH]nc(-c3cc4c(-c5cccs5)nccc4[nH]3)c2n1` [Compound 341, 5-(4-Methylpyridin-3-yl)-3-(4-(thiophen-2-yl)-1H-pyrrolo[3,2-c]pyridin-2-yl)-1H-pyrazolo[4,3-b]pyridine], the pEC50 in the assay with IL-6 is 5.27; in assay [1], 6.21; in assay [2], 5.96; in the assay with SW480 colon cancer cells, 6.24.
Consider `c1csc(-c2nccc3[nH]c(-c4n[nH]c5ccc(-c6cncnc6)nc45)cc23)c1` [Compound 363, 5-(Pyrimidin-5-yl)-3-(4-(thiophen-2-yl)-1H-pyrrolo[3,2-c]pyridin-2-yl)-1H-pyrazolo[4,3-b]pyridine], for which the pEC50 was 5.56 in the assay with IL-6, 6.28 in assay [1], 5.57 in assay [2] and 5.82 with SW480 colon cancer cells.
For the molecule `Fc1ccc(-c2nccc3[nH]c(-c4n[nH]c5ccc(-c6ccccn6)nc45)cc23)cc1` [Compound 56, 3-(4-(4-Fluorophenyl)-1H-pyrrolo[3,2-c]pyridin-2-yl)-5-(pyridin-2-yl)-1H-pyrazolo[4,3-b]pyridine], the pEC50 in the assay on IL-6 is 5.11; in assay [1] it was 5.88; in assay [2] it was 5.46; with SW480 colon cancer cells, 5.59.
For `O=C(Nc1cncc(-c2ccc3[nH]nc(-c4cc5c(-c6cccnc6)nccc5[nH]4)c3n2)c1)C1CCCC1` [Compound 106, N-(5-(3-(4-(Pyridin-3-yl)-1H-pyrrolo[3,2-c]pyridin-2-yl)-1H-pyrazolo[4,3-b]pyridin-5-yl)pyridin-3-yl)cyclopentanecarboxamide], the pEC50 with IL-6 was 7.06; in assay [1] it was 5.88; in assay [2], 6.15; in the assay with SW480 colon cancer cells, 6.13.
Consider `CC(C)(C)C(=O)Nc1cncc(-c2ccc3[nH]nc(-c4cc5c(-c6cccc(F)c6)nccc5[nH]4)c3n2)c1` [Compound 8, N-(5-(3-(4-(3-Fluorophenyl)-1H-pyrrolo[3,2-c]pyridin-2-yl)-1H-pyrazolo [4,3-b]pyridin-5-yl)pyridin-3-yl)pivalamide], for which the pEC50 in the assay with IL-6 was 6.93; in assay [1] it was 5.97; in assay [2], 5.31; with SW480 colon cancer cells, 5.58.
Take `c1cc(-c2nccc3[nH]c(-c4n[nH]c5ccc(-c6cncc(CNCC7CCCC7)c6)nc45)cc23)ccn1` [Compound 137, 1-Cyclopentyl-N-((5-(3-(4-(pyridin-4-yl)-1H-pyrrolo[3,2-c]pyridin-2-yl)-1H-pyrazolo[4,3-b]pyridin-5-yl)pyridin-3-yl)methyl)methanamine]: the pEC50 is 5.04 in the assay with IL-6, 5.49 in assay [1], 5.35 in assay [2] and 5.78 with SW480 colon cancer cells.
As to `c1cc2[nH]c(-c3n[nH]c4ccc(-c5cncc(OC6CCCCC6)c5)nc34)cc2c(-c2ccoc2)n1` [Compound 687, 5-(5-(Cyclohexyloxy)pyridin-3-yl)-3-(4-(furan-3-yl)-1H-pyrrolo[3,2-c]pyridin-2-yl)-1H-pyrazolo[4,3-b]pyridine], the pEC50 in the assay on IL-6 is 5.04; in assay [1], 6.34; in assay [2], 6.00; with SW480 colon cancer cells it was 6.26.
Regarding `CN1CCN(c2nccc3[nH]c(-c4n[nH]c5ccc(-c6cncc(NC(=O)CC(C)(C)C)c6)nc45)cc23)CC1` [Compound 240, 3,3-Dimethyl-N-(5-(3-(4-(4-methylpiperazin-1l-yl)-1H-pyrrolo[3,2-c]pyridin-2-yl)-1H-pyrazolo[4,3-b]pyridin-5-yl)pyridin-3-yl)butanamide], the pEC50 with IL-6 was 6.38; in assay [1], 6.00; in assay [2] it was 5.45; in the assay on SW480 colon cancer cells, 5.45.
As for `c1cc2[nH]c(-c3n[nH]c4ccc(-c5cncc(CNCC6CCCC6)c5)nc34)cc2c(-c2ccoc2)n1` [Compound 333, 1-Cyclopentyl-N-((5-(3-(4-(furan-3-yl)-1H-pyrrolo[3,2-c]pyridin-2-yl)-1H-pyrazolo[4,3-b]pyridin-5-yl)pyridin-3-yl)methyl)methanamine], the pEC50 with IL-6 was 5.04; in assay [1], 6.15; in assay [2] it was 5.43; with SW480 colon cancer cells, 5.92.
